Source: patent US5212176A, “R(+)-terazosin” (Abbott Laboratories, priority 1990, dated 1993)
Where a name gives a salt, the structure may show the parent alone.

Tests used:
α1 adrenergic receptors = molecular target: T1, α1 adrenergic receptors (Rattus norvegicus, UniProt P15823); experiment: α1 adrenergic receptor binding: competition with tritiated prazosin in rat liver membranes; set-up: species or system male Sprague-Dawley rats; conditions: [3H]prazosin 0.2 nM, 22° C., 50 min, mean, read-out: α1 Receptor pKI (converted)
T1 construct: cellular membranes containing α-receptors; from tissue; host or cells: liver membranes of male Sprague-Dawley rats
T1 sequence (P15823 1-515): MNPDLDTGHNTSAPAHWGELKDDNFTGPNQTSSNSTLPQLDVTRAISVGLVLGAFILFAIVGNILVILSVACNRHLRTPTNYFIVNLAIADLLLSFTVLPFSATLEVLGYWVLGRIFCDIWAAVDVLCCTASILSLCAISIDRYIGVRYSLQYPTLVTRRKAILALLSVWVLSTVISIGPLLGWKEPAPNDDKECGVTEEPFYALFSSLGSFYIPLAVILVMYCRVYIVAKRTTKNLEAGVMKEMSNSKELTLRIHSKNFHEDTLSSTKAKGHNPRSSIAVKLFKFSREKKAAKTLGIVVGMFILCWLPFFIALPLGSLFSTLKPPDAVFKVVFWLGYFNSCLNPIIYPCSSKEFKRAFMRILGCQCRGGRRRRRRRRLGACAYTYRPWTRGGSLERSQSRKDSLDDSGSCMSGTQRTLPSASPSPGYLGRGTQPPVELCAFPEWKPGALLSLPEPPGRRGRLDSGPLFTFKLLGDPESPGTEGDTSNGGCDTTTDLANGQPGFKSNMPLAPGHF
Method: (§1) The technique is well known and described in the literature. The pKI, or negative logarithm of the binding equilibrium constant, is determined from the experimental data for each receptor and the degree of selectivity of the compound in question for α1 over α2 receptors can be measured by the antilogarithm of the differences between the pKI values for the two receptors.
(§2) α-Adrenergic binding data were obtained for the two enantiomers of terazosin and the racemic compound. Tissue from the liver and cerebral cortex of male Sprague-Dawley rats was homogenized in ice-cold assay buffer (Tris-HCl, 50 mM, pH 7.0 and 22° C.). After centrifugation at 48,000 g for ten minutes the resulting pellets, containing cellular membranes containing α-receptors, were resuspended in 20 volumes of assay buffer and recentrifuged for ten minutes at 48,000 g. Liver membranes were diluted 200-fold and cerebral cortex tissues 50-fold with assay buffer.
(§3) Binding to α1 adrenergic receptors was characterized with liver membranes in competition studies using tritiated prazosin (82 Ci/mmol, DuPont NEN; 0.2 nM) and six concentrations of each test compound at half-log incremental concentrations. Binding to α2 adrenergic receptors was characterized in cerebral cortex tissue using tritiated rauwolscine (82.2 Ci/mMol, DuPont NEN; 0.5 nM) and six concentrations of competing test compound. Equilibrium binding was characterized after a 50 minute incubation period at 22° C.
(§4) where [L] is the concentration of radioligand and KD is the equilibrium dissociation constant of the radioligand for the receptor.

α2 adrenergic receptors = experiment: α2 adrenergic receptor binding: competition with tritiated rauwolscine in rat cerebral cortex tissue; set-up: species or system male Sprague-Dawley rats; conditions: [3H]rauwolscine 0.5 nM, 22° C., 50 min, mean
Method: as §1, §2, §3, §4

[1] = acute toxicity, intravenous administration in adult male mice; assay type: in vivo; conditions: mouse, in vivo, adult male mice
Method: (§5) The acute toxicities of the two enantiomeric forms of terazosin and the racemic compound were tested in adult male mice by intravenous administration, and the data appear in Table 2.

[2] = test system: spontaneously hypertensive rat; experiment: antihypertensive effects in the spontaneously hypertensive rat model (blood pressure and heart rate); assay type: in vivo; conditions: oral, 0.1 to 10.0 mg/kg; 1, 5, 8, and 24 hours
Method: The antihypertensive effects of R(+)-, S(-)-, and racemic terazosin were tested in several well-controlled experiments in the spontaneously hypertensive rat model. All three materials were dissolved in vehicle (0.2% methylcellulose) and administered orally at doses ranging from 0.1 to 10.0 mg/kg of body weight. As a control, the vehicle was administered orally. The compounds were administered in a volume of 2.0 ml/kg. All doses of the compound and vehicle were tested simultaneously in groups of eight to sixteen rats, randomly grouped.
The arterial and systolic blood pressure and heart rate were measured thirty minutes prior to and at intervals of 1, 5, 8, and 24 hours following administration of the test compounds. […] While not holding to one theory to the exclusion of others, it is believed that the tachycardia associated with administration of the S(-)-enantiomer is due to the greater affinity of the S(-)-enantiomer for binding at the α2 adrenergic receptor and the lack of tachycardia associated with administration of the R(+)-enantiomer with its low affinity for the α2 receptors.

adult male mice = experiment: acute toxicity, intravenous administration in adult male mice; assay type: in vivo; conditions: mice, R(+) vs S(-)
Method: as §5

α2 adrenoceptor = molecular target: T2, α2 adrenoceptor (Rattus norvegicus, UniProt P22909); experiment: α2-mediated norepinephrine release / clonidine antagonism in the stimulated rat vas deferens model; set-up: species or system male Wistar rats
T2 construct: Vas deferens tissue from male Wistar rats; from tissue; host or cells: isolated vas deferens of male Wistar rats
T2 sequence (P22909 1-465): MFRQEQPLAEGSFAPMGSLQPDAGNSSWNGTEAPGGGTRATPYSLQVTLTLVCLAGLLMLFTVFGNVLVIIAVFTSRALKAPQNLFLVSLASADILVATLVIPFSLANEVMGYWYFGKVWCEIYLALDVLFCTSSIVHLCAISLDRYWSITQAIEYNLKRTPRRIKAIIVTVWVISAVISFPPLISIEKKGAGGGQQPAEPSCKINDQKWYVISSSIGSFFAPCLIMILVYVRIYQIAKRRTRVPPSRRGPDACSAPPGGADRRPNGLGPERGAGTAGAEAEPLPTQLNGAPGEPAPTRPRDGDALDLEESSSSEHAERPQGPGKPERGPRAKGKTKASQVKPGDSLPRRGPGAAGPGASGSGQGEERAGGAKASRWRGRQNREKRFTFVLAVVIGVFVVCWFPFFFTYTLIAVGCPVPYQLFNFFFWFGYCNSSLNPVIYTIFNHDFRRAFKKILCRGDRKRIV
Method: The effect upon α2 -stimulated norepinephrine release of R(+)-terazosin and the S(-)-enantiomer and racemic compound were evaluated in the stimulated rat vas deferens model. Vas deferens tissue from male Wistar rats was cleaned of extraneous tissue and mounted between platinum stimulating electrodes and suspended in a tissue bath. The tissues were stimulated transmurally until the preparation stabilized, generally after about 60-80 minutes. After the twitch response became constant, a stimulus was applied at a frequency of 0.1 Hz for the duration of the dose-responsestudy.
Clonidine was used as a control for inhibiting the twitch response, with 10 minute contact times at increasing doses until the stimulated response was attenuated to zero. The stimulus was then reduced to once every five minutes and the tissue washed until the twitch response was restored. After this, the 0.1 Hz signal was again applied and clonidine was administered together with test compound. All responses were calculated as percent reduction in the twitch response.
(The pA2 values is the negative logarithm of the equilibrium dissociation constant for the antagonist-receptor complex, calculated from pharmacological functional data, and is a measure of the affinity of the antagonist at the particular receptor.)

SMILES	Ki (α1 adrenergic receptors)	α2 Receptor pKI (α2 adrenergic receptors)	LD50 [1]	increase in heart rate (tachycardia) [2]	LD50 increase over the corresponding S(-)-enantiomer (adult male mice)	pA2 (measurability) (α2 adrenoceptor; rat vas deferens)	α2-adrenoreceptor affinity and effect on α2-adrenoreceptor mediated norepinephrine release (α2 adrenoceptor; tested up to 3.0 μmolar)	effect on norepinephrine release and contractile (twitch) response (α2 adrenoceptor; rat vas deferens, 0.1 Hz stimulation, agonist control)
COc1cc2nc(N3CCN(C(=O)C4CCCO4)CC3)nc(N)c2cc1OC (racemic) [Racemic, 2-[4-[(tetrahydro-2-furanyl)carbonyl]-1-piperazinyl]-6,7-dimethoxy-4-quinazolinamine, reference compound]	0.643 nM	6.569 ± 0.129 - log M	248 mg/kg	tachycardia was consistently observed				
COc1cc2nc(N3CCN(C(=O)[C@H]4CCCO4)CC3)nc(N)c2cc1OC [R(+), R(+)-2-[4-[(tetrahydro-2-furanyl)carbonyl]-1-piperazinyl]-6,7-dimethoxy-4-quinazolinamine hydrochloride]	0.964 nM	5.938 ± 0.178 - log M	307 mg/kg	consistently did not produce an increase in heart rate (tachycardia)	50%	No pA2 values could be measured	devoid of α2 -adrenoreceptor affinity and thus failed to affect α2 -adrenoreceptor mediated norepinephrine release	
COc1cc2nc(N3CCN(C(=O)[C@@H]4CCCO4)CC3)nc(N)c2cc1OC [S(-), S(-)-2-[4-[(tetrahydro-2-furanyl)carbonyl]-1-piperazinyl]-6,7-dimethoxy-4-quinazolinamine]	0.643 nM	7.036 ± 0.199 - log M	205 mg/kg	tachycardia was consistently observed				
Clc1cccc(Cl)c1N=C1NCCN1 [clonidine, reference compound]								inhibits norepinephrine release from the adrenergic nerve endings and thus inhibits the contractile response of tissue
